For 30 compounds, Ki results are on record in article PMC11594608, “Sulfonamide-Based Inhibition of the β-Carbonic Anhydrase from A. baumannii, a Multidrug-Resistant Bacterium” (International Journal of Molecular Sciences, 2024).

The target in one experiment is T1, βAbauCA (CanB) (Acinetobacter baumannii, UniProt A0A7U3Y636).
T1 construct: gene AB57_1063; oligomer not determined here
T1 sequence (A0A7U3Y636 1-204): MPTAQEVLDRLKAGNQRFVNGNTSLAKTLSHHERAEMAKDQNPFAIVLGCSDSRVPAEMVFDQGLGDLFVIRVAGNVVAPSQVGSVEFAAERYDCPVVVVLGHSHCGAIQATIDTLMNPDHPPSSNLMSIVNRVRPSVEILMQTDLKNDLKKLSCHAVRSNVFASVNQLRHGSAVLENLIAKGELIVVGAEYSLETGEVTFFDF
As to the kind of experiment: stopped-flow CO2 hydrase assay. It is filed as biochemical. Particulars: CO2 substrate, […] TRIS pH […] NaClO4, […] °C, […] min preincubation.
As for `CC(=O)Nc1nnc(S(N)(=O)=O)s1` [AAZ, 5-acetamido-1,3,4-thiadia-zole-2-sulphonamide], the Ki was found to be 191 nM. The compound `CCN[C@H]1CN(CCCOC)S(=O)(=O)c2sc(S(N)(=O)=O)cc21` [BRZ, Brinzolamide] registered a Ki of 170 nM. Take `NS(=O)(=O)c1nnc(NS(=O)(=O)c2ccccc2)s1` [BZA, Benzolamide]: the Ki is 113 nM. In the case of `Cc1ccc(-c2cc(C(F)(F)F)nn2-c2ccc(S(N)(=O)=O)cc2)cc1` [CLX], the Ki stood at 270 nM.

`NS(=O)(=O)c1cc(Cl)c(Cl)c(S(N)(=O)=O)c1` [DCP] registered a Ki of 472 nM. The compound `CCN[C@H]1C[C@H](C)S(=O)(=O)c2sc(S(N)(=O)=O)cc21` [DZA] had a Ki of 232 nM.

`NS(=O)(=O)c1cc2c(cc1Cl)NCNS2(=O)=O` [HCT] had a Ki of 875 nM. Regarding `CC(=O)N=c1sc(S(N)(=O)=O)nn1C` [MZA], the Ki was 249 nM. On to `O=C1NS(=O)(=O)c2ccccc21` [SAC], for which the Ki is 7490 nM. For `CCN1CCCC1CNC(=O)c1cc(S(N)(=O)=O)ccc1OC` (stereo not shown) [SLP], the Ki was determined as 6860 nM. `NS(=O)(=O)c1ccc(N2CCCCS2(=O)=O)cc1` [SLT] showed a Ki of 542 nM. `CC1(C)O[C@@H]2[C@@H](CO[C@@]3(COS(N)(=O)=O)OC(C)(C)O[C@@H]23)O1` [TPM, topiramate] displayed a Ki of 2770 nM.

`Cc1onc(-c2ccccc2)c1-c1ccc(S(N)(=O)=O)cc1` [VLX] registered a Ki of 215 nM. In the case of `NS(=O)(=O)Cc1noc2ccccc12` [ZNS], the Ki amounted to 2340 nM. For `Cc1ccc(S(N)(=O)=O)cc1` [compound 4, 4], the Ki came out at 1480 nM. Still for that read-out and setting: with `NS(=O)(=O)c1cc(Cl)cc(Cl)c1O` [compound 10, 10] the figure was 4160 nM; with `Nc1cc(C(F)(F)F)c(S(N)(=O)=O)cc1S(N)(=O)=O` [compound 11, 11], 928 nM. In turn, `Nc1cc(Cl)c(S(N)(=O)=O)cc1S(N)(=O)=O` [compound 12, 12] yielded a Ki of 1200 nM. `Nc1nnc(S(N)(=O)=O)s1` [compound 13, 13] returned a Ki of 444 nM. The same measure, in the same setting: with `Cn1nc(S(N)(=O)=O)sc1=N` [compound 14, 14] the figure was 604 nM; with `NS(=O)(=O)c1ccc(O)cc1` [compound 15, 15], 625 nM.

Regarding `NS(=O)(=O)c1ccc(CO)cc1` [compound 16, 16], the Ki worked out at 700 nM. On to `NS(=O)(=O)c1ccc(CCO)cc1` [compound 17, 17], for which the Ki was 715 nM.

The compound `NS(=O)(=O)c1ccc(C(=O)O)cc1` [compound 18, 18] had a Ki of 547 nM. Same read-out and setting: in the case of `Nc1nccc(Nc2ccc(S(N)(=O)=O)cc2)n1` [compound 19, 19] it was 407 nM; in that of `Nc1ccc(S(=O)(=O)Nc2nnc(S(N)(=O)=O)s2)cc1` [compound 20, 20], 344 nM. For the compound `Nc1ccc(S(=O)(=O)Nc2ccc(S(N)(=O)=O)cc2)cc1` [compound 22, 22], the Ki was 276 nM. `Nc1ccc(S(=O)(=O)NCc2ccc(S(N)(=O)=O)cc2)cc1` [compound 23, 23] showed a Ki of 317 nM. In turn, `Nc1ccc(S(=O)(=O)NCCc2ccc(S(N)(=O)=O)cc2)cc1` [compound 24, 24] came in with a Ki of 326 nM.

The target of a further experiment is T2, hCA I (Homo sapiens, UniProt P00915).
T2 construct: gene CA1
T2 sequence (P00915 2-261): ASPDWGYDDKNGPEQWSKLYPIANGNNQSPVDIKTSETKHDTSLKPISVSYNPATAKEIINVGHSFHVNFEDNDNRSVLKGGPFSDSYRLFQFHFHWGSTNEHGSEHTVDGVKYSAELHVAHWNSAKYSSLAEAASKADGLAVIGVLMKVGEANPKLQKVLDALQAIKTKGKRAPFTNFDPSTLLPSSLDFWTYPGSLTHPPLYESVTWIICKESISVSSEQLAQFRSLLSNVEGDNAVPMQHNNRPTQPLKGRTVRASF
As to the kind of experiment: stopped-flow CO2 hydrase assay. Format: biochemical. Particulars: CO2 substrate, […] HEPES pH […] °C, […] min preincubation; read-out: KI (nM) ^a / CA I.
With `NS(=O)(=O)c1cccc(S(N)(=O)=O)c1` [compound 3, 3], the Ki was determined as 79 nM.

The experiment is the same for the next values; noted with them: read-out: KI (nM) ^a / CA I.
In the case of `Cc1ccc(S(N)(=O)=O)cc1` [compound 4, 4], the Ki stood at 78500 nM.
